Measurements taken from publication PMC4907692, “Engineering vanilloid-sensitivity into the rat TRPV2 channel” (eLife, 2016).
Like-named read-outs stand apart in the source and are kept apart here.

Tests used:
[1] = target: T1, TRPV2 QM (Rattus norvegicus, UniProt Q9WUD2, F472S/L507M/L510T/Q530E); experiment: Two-electrode voltage-clamp in Xenopus oocytes, TRPV2 QM; format: cell-based; conditions: 100 nM RTx
T1 construct: expressed in transfected cells; host or cells: Xenopus oocytes (cRNA injection)
T1 sequence (Q9WUD2 1-761 F472S/L507M/L510T/Q530E): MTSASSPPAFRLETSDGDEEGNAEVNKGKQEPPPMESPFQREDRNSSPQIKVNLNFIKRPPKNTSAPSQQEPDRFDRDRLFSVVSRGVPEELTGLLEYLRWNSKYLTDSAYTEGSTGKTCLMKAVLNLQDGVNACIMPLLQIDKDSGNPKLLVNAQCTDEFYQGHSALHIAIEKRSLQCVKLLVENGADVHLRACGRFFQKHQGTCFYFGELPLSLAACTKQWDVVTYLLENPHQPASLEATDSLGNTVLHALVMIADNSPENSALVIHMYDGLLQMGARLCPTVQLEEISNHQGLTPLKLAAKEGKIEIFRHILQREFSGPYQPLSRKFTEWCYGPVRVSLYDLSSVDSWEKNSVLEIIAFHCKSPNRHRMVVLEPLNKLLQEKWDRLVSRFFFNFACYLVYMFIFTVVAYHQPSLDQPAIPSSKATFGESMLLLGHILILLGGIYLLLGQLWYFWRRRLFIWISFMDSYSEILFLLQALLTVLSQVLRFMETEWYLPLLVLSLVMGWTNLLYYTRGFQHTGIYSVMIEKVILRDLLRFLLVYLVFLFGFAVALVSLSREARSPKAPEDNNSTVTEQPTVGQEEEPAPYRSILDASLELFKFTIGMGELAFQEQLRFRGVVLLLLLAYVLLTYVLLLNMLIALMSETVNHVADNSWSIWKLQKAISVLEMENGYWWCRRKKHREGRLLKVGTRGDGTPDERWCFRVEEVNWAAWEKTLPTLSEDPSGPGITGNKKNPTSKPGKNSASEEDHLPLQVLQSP
Text: (§1) To further investigate the putative vanilloid binding pocket in TRPV1, we inspected the cryo-EM structure of TRPV1, looking for residues that are located nearby to the putative RTx density (Figure 1B; regions/residues highlighted in yellow) and that differ between TRPV1 and TRPV2 channels (Figure 3—figure supplement 1; regions highlighted in magenta). […] To quantify the contribution of each of these residues to TRPV1 channel activation by RTx under our experimental conditions, we mutated each to the corresponding residue in TRPV2. We then expressed each construct in oocytes and used the two electrode voltage-clamp technique to study activation by RTx and by the non-specific TRPV channel activator 2-APB. We recorded time courses for channel activation by each agonist while stepping the membrane potential from −60 to +60 mV every 3 s from a holding potential of 0 mV using an external recording solution containing 100 mM KCl (internal K^+ concentration in a healthy oocyte is 100 mM) (Figure 3A, left). We also recorded current-voltage (I-V) relations by stepping over a wider range of voltages in the absence and presence of activators, or in the presence of ruthenium red (RR), a non-specific inhibitor of TRP channels (Figure 3A, right). […]

[2] = target: T2, TRPV1 S512F/T550L (Rattus norvegicus, UniProt O35433, S512F/T550L); experiment: Two-electrode voltage-clamp in Xenopus oocytes, TRPV1 S512F/T550L; format: cell-based; conditions: 100 nM RTx
T2 construct: expressed in transfected cells; host or cells: Xenopus oocytes (cRNA injection)
T2 sequence (O35433 whole entry S512F/T550L): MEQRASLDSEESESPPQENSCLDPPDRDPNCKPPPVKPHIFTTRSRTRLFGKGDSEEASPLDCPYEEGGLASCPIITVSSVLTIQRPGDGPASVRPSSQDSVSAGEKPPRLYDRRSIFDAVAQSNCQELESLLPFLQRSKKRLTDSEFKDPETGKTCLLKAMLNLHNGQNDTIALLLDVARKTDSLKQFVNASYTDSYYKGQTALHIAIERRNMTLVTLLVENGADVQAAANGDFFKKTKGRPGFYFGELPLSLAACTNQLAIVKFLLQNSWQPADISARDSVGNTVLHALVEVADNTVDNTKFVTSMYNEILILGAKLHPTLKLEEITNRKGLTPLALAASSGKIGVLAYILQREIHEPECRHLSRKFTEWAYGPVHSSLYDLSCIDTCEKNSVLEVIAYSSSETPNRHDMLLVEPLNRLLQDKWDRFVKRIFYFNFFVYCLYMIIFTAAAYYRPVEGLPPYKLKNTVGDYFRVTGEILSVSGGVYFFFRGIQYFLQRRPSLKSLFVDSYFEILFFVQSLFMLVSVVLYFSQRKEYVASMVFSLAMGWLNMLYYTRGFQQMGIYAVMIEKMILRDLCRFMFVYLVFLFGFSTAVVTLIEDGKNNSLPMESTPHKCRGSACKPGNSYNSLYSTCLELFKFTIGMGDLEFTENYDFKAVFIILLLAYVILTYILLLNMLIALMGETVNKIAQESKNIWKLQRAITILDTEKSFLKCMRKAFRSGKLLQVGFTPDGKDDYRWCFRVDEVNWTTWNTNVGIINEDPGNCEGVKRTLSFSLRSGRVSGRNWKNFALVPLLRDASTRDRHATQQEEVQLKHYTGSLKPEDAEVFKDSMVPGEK
Text: as §1

[3] = target: T3, full-length GFP-tagged TRPV1 (Rattus norvegicus, UniProt O35433); experiment: 3H-RTx binding to intact S. cerevisiae cells expressing GFP-tagged TRPV1; conditions: 37°C; for Kd: read-out: Kd of 3H-RTx binding (Hill fit)
T3 construct: Smooth function for full-length GFP-tagged TRPV1 is a fit of the Hill equation; expressed in transfected cells; host or cells: Saccharomyces cerevisiae (intact cells)
T3 sequence (O35433 whole entry): as the sequence (O35433 whole entry S512F/T550L) above, with F512S, L550T counted along it
Description: To evaluate whether these constructs were competent to bind vanilloids, we initially measured the binding of [^3H]-RTx ([Szallasi and Blumberg, 1999]; [Szallasi et al., 1999]) to intact yeast cells expressing each of the constructs.
S. cerevisiae cells overexpressing TRPV1 constructs to be used in ligand binding assays on intact cells (Figure 1E,F) were grown as for small scale expression trials. 24 hr after protein induction cells were spun down at 4000g, the supernatant was removed and the pellet resuspended in 1x PBS, normalizing OD600 to 75 for each sample, and aliquoted for storage at -80°C. ^3H-RTx binding assays on cells were performed at 37°C as previously described ([Feng et al., 2015]), but where non-specific binding of RTx was measured using cells expressing GFP alone. The binding of RTx to TRPV1 and TRPV2 in membranes (e.g. Figure 2A,B and 5C) was performed at 37°C unless otherwise stated using membranes prepared from large scale protein preparations of S. cerevisiae containing rat TRPV1 and TRPV2 with a 1D4 tag expressed using a constitutive promoter as in [Moiseenkova-Bell et al., 2008]. Data for binding of RTx to membranes was corrected for non-specific binding, determined using either excess non-radioactive ligand or heat inactivation of the protein, as previously described ([Feng et al., 2015]). The TRPV1-activating double-knot toxin (DkTx) was produced recombinantly, folded in vitro and purified as previously described ([Bae et al., 2012]). Yeast membranes were incubated with DkTx solution for 1 hr at 4°C with gentle agitation prior to undertaking RTx binding assays.

Question: What does the source list for `C=C(C)[C@]12C[C@@H](C)[C@@]34O[C@](Cc5ccccc5)(O[C@@H]1[C@@H]3C=C(COC(=O)Cc1ccc(O)c(OC)c1)C[C@]1(O)C(=O)C(C)=C[C@@H]41)O2` [RTx, resiniferatoxin]?
Answer: channel activation by RTx [1]: robustly activated; channel activation by RTx [2]: lost sensitivity; Hill slope (nH) ([3]; Figure 1E): 0.78; Kd ([3]; Figure 1E): 7 nM; Hill slope (nH) ([3]; Figure 1F): 0.82; Kd ([3]; Figure 1F): 7.2 nM
